The supplement of paper PMC8612539
Values after ≈ are worked out from the molar mass of the structure shown.

Tested on: Pasteurella multocida
Experiment: minimum inhibitory concentration (MIC)
Method: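 Broth microdilution MIC (Sensititre BOPO7F bovine plate, CLSI methods) of 19 antimicrobials against field isolates of P. multocida, M. haemolytica, H. somni (deep nasopharyngeal swabs) and E. coli, Enterococcus spp. (rectal swabs) from weaned dairy heifers. Incubation 16-24 h at 35 C. MIC is the lowest concentration preventing visible growth. Values with <= or > lie at the tested range limits. Trimethoprim-sulfamethoxazole is given as the trimethoprim component of a 1:19 mixture.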

CN1C[C@@H]2C[C@H]1CN2c1cc2c(cc1F)c(=O)c(C(=O)O)cn2C1CC1 [Danofloxacin]
Conditions | minimum inhibitory concentration [µg/mL]
isolate (source animal id): 10 | > 1
isolate (source animal id): 11 | 1 (≈ 2.8 µM)
isolate (source animal id): 12 | > 1
isolate (source animal id): 19 | > 1
isolate (source animal id): 23 | 1 (≈ 2.8 µM)
isolate (source animal id): 26 | > 1
isolate (source animal id): 98 | > 1
isolate (source animal id): 104 | 1 (≈ 2.8 µM)
isolate (source animal id): 115 | ≤ 0.12
isolate (source animal id): 117 | > 1
isolate (source animal id): 118 | > 1
isolate (source animal id): 121 | ≤ 0.12
isolate (source animal id): 124 | > 1
isolate (source animal id): 125 | > 1
isolate (source animal id): 128 | ≤ 0.12
isolate (source animal id): 131 | > 1
isolate (source animal id): 135 | > 1
isolate (source animal id): 136 | ≤ 0.12
isolate (source animal id): 140 | > 1
isolate (source animal id): 144 | 1 (≈ 2.8 µM)
isolate (source animal id): 146 | 1 (≈ 2.8 µM)
isolate (source animal id): 150 | ≤ 0.12
isolate (source animal id): 151 | ≤ 0.12
isolate (source animal id): 153 | 1 (≈ 2.8 µM)
isolate (source animal id): 155 | > 1
isolate (source animal id): 157 | > 1
isolate (source animal id): 160 | ≤ 0.12
isolate (source animal id): 164 | ≤ 0.12
isolate (source animal id): 165 | ≤ 0.12
isolate (source animal id): 167 | ≤ 0.12
isolate (source animal id): 168 | > 1
isolate (source animal id): 169 | ≤ 0.12
isolate (source animal id): 170 | ≤ 0.12
isolate (source animal id): 171 | ≤ 0.12
isolate (source animal id): 172 | ≤ 0.12
isolate (source animal id): 173 | > 1
isolate (source animal id): 174 | ≤ 0.12
isolate (source animal id): 175 | ≤ 0.12
isolate (source animal id): 176 | ≤ 0.12
isolate (source animal id): 177 | ≤ 0.12
isolate (source animal id): 178 | ≤ 0.12
isolate (source animal id): 179 | ≤ 0.12
isolate (source animal id): 182 | ≤ 0.12
isolate (source animal id): 192 | ≤ 0.12
isolate (source animal id): 193 | ≤ 0.12
isolate (source animal id): 195 | ≤ 0.12
isolate (source animal id): 196 | ≤ 0.12
isolate (source animal id): 197 | ≤ 0.12
isolate (source animal id): 198 | > 1
isolate (source animal id): 199 | ≤ 0.12
isolate (source animal id): 200 | ≤ 0.12
isolate (source animal id): 201 | ≤ 0.12
isolate (source animal id): 203 | ≤ 0.12
isolate (source animal id): 204 | ≤ 0.12
isolate (source animal id): 205 | > 1
isolate (source animal id): 206 | ≤ 0.12
isolate (source animal id): 207 | ≤ 0.12
isolate (source animal id): 208 | ≤ 0.12
isolate (source animal id): 209 | ≤ 0.12
isolate (source animal id): 210 | > 1
isolate (source animal id): 213 | ≤ 0.12
isolate (source animal id): 216 | ≤ 0.12
isolate (source animal id): 223 | > 1
isolate (source animal id): 227 | ≤ 0.12
isolate (source animal id): 229 | > 1
isolate (source animal id): 233 | > 1
isolate (source animal id): 234 | > 1
isolate (source animal id): 237 | > 1
isolate (source animal id): 241 | > 1
isolate (source animal id): 245 | > 1
isolate (source animal id): 247 | 1 (≈ 2.8 µM)
isolate (source animal id): 250 | > 1
isolate (source animal id): 254 | > 1
isolate (source animal id): 255 | > 1
isolate (source animal id): 258 | ≤ 0.12
isolate (source animal id): 261 | > 1
isolate (source animal id): 262 | > 1
isolate (source animal id): 269 | 0.25 (≈ 0.7 µM)
isolate (source animal id): 270 | > 1
isolate (source animal id): 274 | > 1
isolate (source animal id): 275 | > 1
isolate (source animal id): 276 | > 1
isolate (source animal id): 277 | 0.25 (≈ 0.7 µM)
isolate (source animal id): 278 | > 1
isolate (source animal id): 279 | 1 (≈ 2.8 µM)
isolate (source animal id): 280 | > 1
isolate (source animal id): 284 | > 1
isolate (source animal id): 285 | > 1
isolate (source animal id): 287 | > 1
isolate (source animal id): 290 | ≤ 0.12
isolate (source animal id): 294 | ≤ 0.12
isolate (source animal id): 295 | ≤ 0.12
isolate (source animal id): 296 | > 1
isolate (source animal id): 307 | ≤ 0.12
isolate (source animal id): 310 | ≤ 0.12
isolate (source animal id): 311 | ≤ 0.12
isolate (source animal id): 312 | > 1
isolate (source animal id): 313 | > 1
isolate (source animal id): 315 | > 1
isolate (source animal id): 316 | > 1

COc1cc(NS(=O)(=O)c2ccc(N)cc2)nc(OC)n1 [sulfadimethoxine]
Conditions | minimum inhibitory concentration [µg/mL]
isolate (source animal id): 10 | > 256
isolate (source animal id): 11 | > 256
isolate (source animal id): 12 | > 256
isolate (source animal id): 19 | > 256
isolate (source animal id): 23 | > 256
isolate (source animal id): 26 | > 256
isolate (source animal id): 98 | > 256
isolate (source animal id): 104 | > 256
isolate (source animal id): 115 | > 256
isolate (source animal id): 117 | > 256
isolate (source animal id): 118 | > 256
isolate (source animal id): 121 | > 256
isolate (source animal id): 124 | > 256
isolate (source animal id): 125 | > 256
isolate (source animal id): 128 | > 256
isolate (source animal id): 131 | > 256
isolate (source animal id): 135 | > 256
isolate (source animal id): 136 | > 256
isolate (source animal id): 140 | > 256
isolate (source animal id): 144 | > 256
isolate (source animal id): 146 | > 256
isolate (source animal id): 150 | > 256
isolate (source animal id): 151 | > 256
isolate (source animal id): 153 | > 256
isolate (source animal id): 155 | > 256
isolate (source animal id): 157 | > 256
isolate (source animal id): 160 | > 256
isolate (source animal id): 164 | > 256
isolate (source animal id): 165 | > 256
isolate (source animal id): 167 | > 256
isolate (source animal id): 168 | > 256
isolate (source animal id): 169 | > 256
isolate (source animal id): 170 | > 256
isolate (source animal id): 171 | > 256
isolate (source animal id): 172 | > 256
isolate (source animal id): 173 | > 256
isolate (source animal id): 174 | > 256
isolate (source animal id): 175 | > 256
isolate (source animal id): 176 | > 256
isolate (source animal id): 177 | > 256
isolate (source animal id): 178 | > 256
isolate (source animal id): 179 | > 256
isolate (source animal id): 182 | > 256
isolate (source animal id): 192 | > 256
isolate (source animal id): 193 | > 256
isolate (source animal id): 195 | > 256
isolate (source animal id): 196 | > 256
isolate (source animal id): 197 | > 256
isolate (source animal id): 198 | > 256
isolate (source animal id): 199 | > 256
isolate (source animal id): 200 | > 256
isolate (source animal id): 201 | > 256
isolate (source animal id): 203 | > 256
isolate (source animal id): 204 | > 256
isolate (source animal id): 205 | > 256
isolate (source animal id): 206 | > 256
isolate (source animal id): 207 | > 256
isolate (source animal id): 208 | > 256
isolate (source animal id): 209 | > 256
isolate (source animal id): 210 | > 256
isolate (source animal id): 213 | > 256
isolate (source animal id): 216 | > 256
isolate (source animal id): 223 | > 256
isolate (source animal id): 227 | > 256
isolate (source animal id): 229 | > 256
isolate (source animal id): 233 | > 256
isolate (source animal id): 234 | > 256
isolate (source animal id): 237 | > 256
isolate (source animal id): 241 | > 256
isolate (source animal id): 245 | > 256
isolate (source animal id): 247 | > 256
isolate (source animal id): 250 | > 256
isolate (source animal id): 254 | > 256
isolate (source animal id): 255 | > 256
isolate (source animal id): 258 | > 256
isolate (source animal id): 261 | > 256
isolate (source animal id): 262 | > 256
isolate (source animal id): 269 | > 256
isolate (source animal id): 270 | > 256
isolate (source animal id): 274 | > 256
isolate (source animal id): 275 | > 256
isolate (source animal id): 276 | > 256
isolate (source animal id): 277 | > 256
isolate (source animal id): 278 | > 256
isolate (source animal id): 279 | > 256
isolate (source animal id): 280 | > 256
isolate (source animal id): 284 | > 256
isolate (source animal id): 285 | > 256
isolate (source animal id): 287 | > 256
isolate (source animal id): 290 | > 256
isolate (source animal id): 294 | > 256
isolate (source animal id): 295 | > 256
isolate (source animal id): 296 | > 256
isolate (source animal id): 307 | > 256
isolate (source animal id): 310 | > 256
isolate (source animal id): 311 | > 256
isolate (source animal id): 312 | > 256
isolate (source animal id): 313 | > 256
isolate (source animal id): 315 | > 256
isolate (source animal id): 316 | > 256
